# Experimental data reported in patent US20190209548A1, “LINKED DIARYL COMPOUNDS WITH ANTICANCER PROPERTIES AND METHODS OF USING THE SAME” (University of Maryland, College Park, priority 2014, published 2019).
# Tests used:
# [1] = test system: G-quadruplexes; test: Binding to G-quadruplexes, general statements; details: all of the tested G-quadruplexes, ITC, compare Tables 2 and 3
# [2] = test system: hTel22; test: ESI mass spectrometry of hTel22 with excess ligand; format: binding, human; details: free DNA present even in excess ligand
# Procedure: Electrospray Ionization Mass Spectrometry. ESI-MS experiments were carried out on a Bruker MicrOTOFQ mass spectrometer. Data acquisition was set to operate in negative ion mode. All experiments were performed in 50 mM ammonium acetate buffer containing 20% HPLC grade methanol and adjusted with 1 N KOH solution to reach pH of 7.0. The WT hTel 22-mer G-quadruplex sample was prepared at a concentration of approximately 10 μM in the ammonium acetate buffer and was exhaustedly dialyzed. Stock solutions of DMZ and Triazene-1 were prepared in the final dialysate buffer at concentration as high as 300 μM. The ESI-MS samples were prepared by mixing the DNA and ligand stock solutions to yield a mixture containing excess of each ligand per equivalence of DNA. The MS capillary voltage was set to +3500 V, dry N2 gas flow was adjusted to 0.5 L/min at 110° C., and the G-quadruplex/ligand samples were directly infused into the MS by using a kD Scientific syringe pump set to a flow rate of 200 μL/hour. Data processing was performed by using Bruker Daltonics Data Analysis program.
# [3] = test system: c-MYC G-quadruplex; test: FRET melting in competition with duplex DNA; format: binding; details: 1 μM ligand, 0.2 μM c-MYC, up to 500 equivalence of double-stranded DNA
# Procedure: FRET DNA melting in competition with duplex DNA. FRET competition assay was performed by adding 2 μM, 20 μM and 100 μM double-stranded competitor 26ds DNA (5′-CAATCGGATCGAATTCGATCCGATTG-3′) (SEQ ID NO: 16) in the presence of 0.2 μM c-MYC G-quadruplex and 1 μM DMZ analogs. Both c-MYC G-quadruplex and 26ds DNA were diluted in 60 mM potassium cacodylate buffer (pH 7.2) and then annealed by heating at 85° C. for 10 min followed by cooling to room temperature in the heating block. Experiments were performed in triplicate.
# [4] = test system: c-MYC protein in MDA-MB-231 cells; test: Western Blot of c-MYC protein expression; format: cell-based, human; details: 5.45 or 27.25 μM, 2, 6 or 24 hours
# Procedure: FIG. 7. Western Blot analysis of c-MYC protein expression in MDA-MB-231 after treated with TMPyP4 and DMZ9. A, MDA-MB-231 cells were treated with DMSO vehicle, DMZ9 (5.45 […] and 27.25 μM), TMPyP4 (22.3 μM and 111.5 μM) for 2 h, 6 h and 24 h. Total protein was extracted and analyzed by Western Blot with 1:1,000 C-MYC (Cell Signaling) and 1:10,000 HRP-linked anti-rabbit IgG (Cell Signaling). * Observed high level of cytotoxicity and low protein levels. B and C, the graphs show the relative density as compared with the DMSO vehicle. Scanned images were analyzed using image J software.
# Western Blot Analysis of c-MYC Protein Expression. C-MYC protein levels in MDA-MB-231 cells were evaluated by performing Western Blot. MDA-MB-231 breast cancer cells were treated with 22.3 or 111.5 μM TMPyP4 and 5.45 or 27.25 μM DMZ9 for 2, 6 or 24 hours.
# [5] = test system: 7bp HP; test: ITC titration with 7 bp hairpin without A2T2; format: binding; details: 20 mM Tris, 100 mM KCl, pH 7.2
# Procedure: Isothermal titration calorimetry. ITC experiments were performed using a VP-ITC calorimeter (GE-Healthcare). A typical ITC experiment involved as many as addition of 28 (10 μL) injections of as high as 1 mM ligand solutions into ˜1.5 mL of a dilute DNA solution (10 μM). Corrected titration curves were achieved by subtracting the blank titration data from the ITC-data for the ligand-DNA titrations. Corrected ITC titrations were fit with a nonlinear regression algorithm again using the CHASM ITC data analysis program developed in our laboratory.
# DNA stock solutions were prepared by reconstituting the lyophilized oligonucleotide into 20 mM Tris buffer with a salt concentration of 100 mM KCl and a pH of 7.2. Approximately 2 mL of the oligonucleotide was dialyzed (1000 Mw cutoff membrane) against three changes of buffer solution (1 L, 24 h each) at 4° C. The concentrations of stock DNA solutions were verified using UV-Vis. G-Quadruplex DNAs were annealed by quickly heating to sample to 100° C., holding at 100° C. for ten minutes then slowly cooling to 5° C. over three hours period. Molar extinction coefficient of the DNAs were determined using a nearest-neighbor method for single stranded DNA. The extinction coefficients at 260 nm for the WT 27-mer bcl-2, WT 24-mer c-myc, WT 22-mer human telomere hTel sequences are 267,200 M^−1cm^−1, 248,100 M^−1cm^−1, and 228,500 M^−1cm^−1 respectively. […]
# [6] = test system: c-kit1; test: NMM displacement assay; format: binding; details: NMM 1 μM, ligand 0-200 μM
# Procedure: Displacement assays with the G-quadruplex binder, NMM. In these assays, the triazene ligand was used at various concentrations: 0, 5, 10, 20, 50, 100, and 200 μM; and the DNA concentration was kept at 1 μM, whereas the concentration of NMM was 1 μM. The experiments were performed in 50 mM Tris-HCl buffer (pH 7.5) in the presence of 50 mM KCl. The excitation wavelength used for NMM was 400 nm and the emission was monitored between 550 and 700 nm (slit width=5 nm, scan speed=600 nm/min, averaging time=0.1 sec, data interval=1 nm, PMT detector voltage=600 V, measurement temperature=20° C.). The sample was initially heated to 95° C. and kept at this temperature for 5 min without ligand or NMM and then cooled down to room temperature for 15 min. Subsequently, the triazene ligand was added to the DNA and incubated for ˜12 h.
# [7] = test system: 27mer WT bcl-2; test: CD titration with bcl-2 G-quadruplex; format: binding; details: K+ Tris buffer
# Procedure: (§1) Circular Dichroism (CD). CD titration experiments were performed with an Olis DSM-20 spectropolarimeter (Bogart, Ga.). All measurements were done at 25° C. using a 1 cm quartz cuvette and covering a spectral range of 220-420 nm. […] Stock solutions of the ligand were added in small amount to reach a molar ratio of 1:1, 3:1, 6:1, and 10:1 of ligand per equivalence of DNA.
# [8] = test system: 24mer WT c-myc; test: CD titration with c-myc G-quadruplex; format: binding; details: K+ Tris buffer
# Procedure: as §1
# [9] = test system: hTel22; test: CD titration with hTel22; format: binding, human; details: K+ Tris buffer
# Procedure: as §1
smiles,measurement,setting,value
N=C(N)c1ccc(NN=Nc2ccccc2)cc1 [DMZ1],binding less than DMZ,[1],4-5 orders of magnitude
same,binding affinity in words,[2],low binding affinity
same,effect of competitor double-stranded DNA on Tm of c-MYC,[3],did not affect the Tm of c-MYC
N=C(N)c1ccc(N=NNc2cccc(C#Cc3ccc(F)cc3)c2)cc1 [DMZ9],c-MYC protein expression,[4],caused a decrease in the c-MYC protein expression
"N=C(N)c1ccc(/N=N/Nc2ccc(C(=N)N)cc2)cc1 [DMZ, Diminazene aceturate, reference compound]",K2,[5],18000 M⁻¹
same,competition with NMM for c-kit1 binding,[6],could indeed compete with NMM for c-kit1 binding
same,CD signal of G-quadruplex upon complexation,[7],dramatically decreased
same,CD signal of G-quadruplex upon complexation,[8],dramatically decreased
same,effect on structure of G-quadruplex (CD),[9],very little effect on the structure
